ChEMBL document CHEMBL5303573, “Mapping human microbiome drug metabolism by gut bacteria and their genes” (Nature, 2019)
Non-standard residues stand in square brackets, D forms with d. Residues, ends and D or L forms follow the SMILES beside them. pGlu = O=C1CC[C@@H](C(=O)O)N1; Thz = O=C(O)[C@@H]1CSCN1

Key:
[1] = The drug is tested on Bacteroides xylanisolvens strain: DSM18836 for biotransformation. The drug concentrations were measured before and after a 12-h incubation by liquid-chromatography-coupled mass spectrometry (LC–MS); conditions: 2 µM
[2] = The drug is tested on Anaerococcus hydrogenalis strain: DSM7454 for biotransformation. The drug concentrations were measured before and after a 12-h incubation by liquid-chromatography-coupled mass spectrometry (LC–MS); conditions: 2 µM
[3] = The drug is tested on Escherichia coli strain: BW25113 for biotransformation. The drug concentrations were measured before and after a 12-h incubation by liquid-chromatography-coupled mass spectrometry (LC–MS); conditions: 2 µM
[4] = The drug is tested on Eggerthella lenta strain: ATCC25559 for biotransformation. The drug concentrations were measured before and after a 12-h incubation by liquid-chromatography-coupled mass spectrometry (LC–MS); conditions: 2 µM
[5] = The drug is tested on Eubacterium ventriosum strain: ATCC27560 for biotransformation. The drug concentrations were measured before and after a 12-h incubation by liquid-chromatography-coupled mass spectrometry (LC–MS); format: ADME; set-up: dose 2 uM, timepoint 0 vs 12 hours; conditions: 2 µM
[6] = bacteroides thetaiotaomicron, 12 h, 2 µM
Description: The drug is tested on Bacteroides thetaiotaomicron strain: 3731 for biotransformation. The drug concentrations were measured before and after a 12-h incubation by liquid-chromatography-coupled mass spectrometry (LC–MS)

Row | Structure (SMILES) | Bacterial Biotransformation [1] | Bacterial Biotransformation [2] | Bacterial Biotransformation [3] | Bacterial Biotransformation [4] | Bacterial Biotransformation [5] | Bacterial Biotransformation [6]
1 | CCCc1nc2c(C)cc(-c3nc4ccccc4n3C)cc2n1Cc1ccc(-c2ccccc2C(=O)O)cc1 | Compound metabolized | Compound NOT metabolized | Compound NOT metabolized | Compound NOT metabolized | Compound NOT metabolized | –
2 | CN1CC(=O)N2[C@H](c3ccc4c(c3)OCO4)c3[nH]c4ccccc4c3C[C@@H]2C1=O | – | Compound NOT metabolized | – | – | Compound NOT metabolized | Compound metabolized
3 | COc1cc2nc(N(C)CCCNC(=O)C3CCCO3)nc(N)c2cc1OC (configuration not stated) [ALFUZOSIN] | Compound NOT metabolized | Compound NOT metabolized | Compound NOT metabolized | – | Compound NOT metabolized | Compound NOT metabolized
4 | O=P(O)(O)O.c1ccc(CN(CC2=NCCN2)c2ccccc2)cc1 [ANTAZOLINE PHOSPHATE] | Compound NOT metabolized | Compound NOT metabolized | – | – | Compound NOT metabolized | –
5 | CC(=O)OCC(=O)[C@@]1(O)[C@@H](C)C[C@H]2[C@@H]3CCC4=CC(=O)C=C[C@]4(C)[C@@]3(F)[C@@H](O)C[C@@]21C [BETAMETHASONE ACETATE] | – | Compound NOT metabolized | Compound NOT metabolized | Compound NOT metabolized | Compound NOT metabolized | Compound NOT metabolized
6 | CC(O)(CS(=O)(=O)c1ccc(F)cc1)C(=O)Nc1ccc(C#N)c(C(F)(F)F)c1 (configuration not stated) [BICALUTAMIDE] | Compound NOT metabolized | Compound NOT metabolized | Compound metabolized | – | Compound NOT metabolized | Compound NOT metabolized
7 | O=C1CC2(CCCC2)CC(=O)N1CCCCN1CCN(c2ncccn2)CC1 [BUSPIRONE] | Compound NOT metabolized | Compound NOT metabolized | – | – | Compound NOT metabolized | Compound NOT metabolized
8 | Br.CN1CCC[C@@H]1Cc1c[nH]c2ccc(CCS(=O)(=O)c3ccccc3)cc12 [ELETRIPTAN HYDROBROMIDE] | Compound NOT metabolized | Compound NOT metabolized | – | – | Compound NOT metabolized | –
9 | C[C@@H](CO)NC(=O)[C@@H]1C=C2c3cccc4[nH]cc(c34)C[C@H]2N(C)C1.O=C(O)/C=C\C(=O)O [ERGONOVINE MALEATE] | Compound metabolized | Compound metabolized | Compound NOT metabolized | – | Compound NOT metabolized | Compound NOT metabolized
10 | CCc1cccc2c3c([nH]c12)C(CC)(CC(=O)O)OCC3 (configuration not stated) [ETODOLAC] | Compound metabolized | Compound NOT metabolized | Compound NOT metabolized | Compound NOT metabolized | Compound NOT metabolized | Compound NOT metabolized
11 | NC(CO)(CO)CO.O=C(c1ccccc1)c1ccc2n1CCC2C(=O)O (configuration not stated) [KETOROLAC TROMETHAMINE] | Compound metabolized | Compound NOT metabolized | Compound NOT metabolized | – | Compound NOT metabolized | Compound metabolized
12 | CCOc1ccc(NC(C)=O)cc1 [PHENACETIN] | Compound NOT metabolized | Compound NOT metabolized | Compound NOT metabolized | – | Compound NOT metabolized | Compound NOT metabolized
13 | O=C1N=C([O-])NC1(c1ccccc1)c1ccccc1.[Na+] [PHENYTOIN SODIUM] | Compound NOT metabolized | Compound NOT metabolized | Compound NOT metabolized | – | – | Compound NOT metabolized
14 | O=C1CC[C@@H](C(=O)N2CSC[C@H]2C(=O)O)N1 [PIDOTIMOD] ([pGlu]-[Thz]-OH) | – | Compound NOT metabolized | Compound NOT metabolized | – | Compound NOT metabolized | –
15 | CC(CN1c2ccccc2Sc2ccccc21)N(C)C (configuration not stated) [PROMETHAZINE] | Compound NOT metabolized | Compound NOT metabolized | – | – | Compound NOT metabolized | Compound NOT metabolized
16 | COc1ccccc1OCC(O)CN1CCN(CC(=O)Nc2c(C)cccc2C)CC1 (configuration not stated) [RANOLAZINE] | Compound NOT metabolized | Compound NOT metabolized | – | – | Compound NOT metabolized | Compound NOT metabolized

Row | Structure (SMILES) | Bacterial Biotransformation [1] | Bacterial Biotransformation [2] | Bacterial Biotransformation [3] | Bacterial Biotransformation [4] | Bacterial Biotransformation [5] | Bacterial Biotransformation [6]
17 | CN(CCOc1ccc(CC2SC(=O)NC2=O)cc1)c1ccccn1.O=C(O)/C=C\C(=O)O (configuration not stated) [ROSIGLITAZONE MALEATE] | Compound NOT metabolized | Compound NOT metabolized | – | – | Compound NOT metabolized | Compound NOT metabolized
18 | CN[C@H]1CC[C@@H](c2ccc(Cl)c(Cl)c2)c2ccccc21 [SERTRALINE] | – | Compound NOT metabolized | Compound NOT metabolized | Compound NOT metabolized | – | Compound NOT metabolized
19 | CCCc1nn(C)c2c(=O)[nH]c(-c3cc(S(=O)(=O)N4CCN(C)CC4)ccc3OCC)nc12.O=C(O)CC(O)(CC(=O)O)C(=O)O [SILDENAFIL CITRATE] | Compound metabolized | Compound metabolized | Compound NOT metabolized | – | Compound NOT metabolized | Compound NOT metabolized
20 | O=C(CCCN1CCC2(CC1)C(=O)NCN2c1ccccc1)c1ccc(F)cc1 [SPIPERONE] | Compound NOT metabolized | Compound NOT metabolized | Compound NOT metabolized | – | Compound NOT metabolized | Compound NOT metabolized
21 | CCN1CCCC1CNC(=O)c1cc(S(N)(=O)=O)ccc1OC (configuration not stated) [SULPIRIDE] | Compound NOT metabolized | Compound NOT metabolized | Compound NOT metabolized | Compound NOT metabolized | Compound NOT metabolized | –
22 | CCOc1ccccc1OCCN[C@H](C)Cc1ccc(OC)c(S(N)(=O)=O)c1.Cl [TAMSULOSIN HYDROCHLORIDE] | Compound NOT metabolized | Compound NOT metabolized | Compound NOT metabolized | Compound NOT metabolized | Compound NOT metabolized | Compound NOT metabolized
23 | COc1cc2nc(N3CCN(C(=O)C4CCCO4)CC3)nc(N)c2cc1OC (configuration not stated) [TERAZOSIN] | Compound NOT metabolized | Compound NOT metabolized | – | Compound NOT metabolized | Compound NOT metabolized | Compound NOT metabolized
24 | c1ccc2[nH]c(-c3cscn3)nc2c1 [THIABENDAZOLE] | Compound NOT metabolized | Compound NOT metabolized | Compound NOT metabolized | Compound NOT metabolized | Compound NOT metabolized | –
25 | Cc1ccc(S(=O)(=O)NC(=O)NN2CCCCCC2)cc1 [TOLAZAMIDE] | Compound metabolized | Compound NOT metabolized | Compound NOT metabolized | – | Compound NOT metabolized | Compound metabolized
26 | O=c1n(CCCN2CCN(c3cccc(Cl)c3)CC2)nc2ccccn12 [TRAZODONE] | Compound NOT metabolized | Compound NOT metabolized | Compound NOT metabolized | Compound NOT metabolized | Compound NOT metabolized | Compound NOT metabolized
27 | COc1cc(C(=O)NCc2ccc(OCCN(C)C)cc2)cc(OC)c1OC [TRIMETHOBENZAMIDE] | Compound NOT metabolized | Compound NOT metabolized | – | – | Compound NOT metabolized | Compound NOT metabolized
28 | CCOC(=O)C1=C[C@]2(CC)CCCN3CCc4c(n1c1ccccc41)[C@@H]32 [VINPOCETINE] | – | Compound NOT metabolized | Compound NOT metabolized | Compound NOT metabolized | Compound NOT metabolized | Compound NOT metabolized
29 | C[C@@H](c1ncncc1F)[C@](O)(Cn1cncn1)c1ccc(F)cc1F [VORICONAZOLE] | Compound metabolized | Compound NOT metabolized | Compound NOT metabolized | Compound NOT metabolized | Compound NOT metabolized | –
30 | CCN(C(C)=O)c1cccc(-c2ccnc3c(C#N)cnn23)c1 [ZALEPLON] | Compound metabolized | Compound NOT metabolized | Compound NOT metabolized | – | Compound NOT metabolized | –
31 | Cc1cn([C@H]2C[C@H](N=[N+]=[N-])[C@@H](CO)O2)c(=O)[nH]c1=O [ZIDOVUDINE] | Compound metabolized | Compound metabolized | Compound NOT metabolized | Compound NOT metabolized | – | Compound NOT metabolized
